According to PubChem BioAssay AID1963848 (Molecular Pharmacology Branch, DTP, NCI, 2024):

Test system: 379773-124-R-J2-PDC spheroid viability
Experiment: Anticancer human tumor 379773-124-R-J2-PDC patient-derived endometrial carcinoma cell line growth inhibition [POLQ]
Conditions: spheroids with HUVEC and MSC; for IC50: curve of first compound; for viability, T/C: stronger effect = lower value
How it was run: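 PDC + HUVEC + MSC complex spheroids; POLQ inhibitors ± partner drugs; top conc. at/near clinical Cmax, else 10 microM (SN-38 1 microM), half-log dilutions; 37 degrees C, 5% CO2.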

[1] = second compound 0.0316 µM, first compound 0.0316 µM
[2] = second compound 0.0316 µM, first compound 0.1 µM
[3] = second compound 0.0316 µM, first compound 0.316 µM
[4] = second compound 0.0316 µM, first compound 1 µM
[5] = second compound 0.1 µM, first compound 0.0316 µM
[6] = second compound 0.1 µM, first compound 0.1 µM
[7] = second compound 0.1 µM, first compound 0.316 µM
[8] = second compound 0.1 µM, first compound 1 µM
[9] = second compound 0.316 µM, first compound 0.0316 µM
[10] = second compound 0.316 µM, first compound 0.1 µM
[11] = second compound 0.316 µM, first compound 0.316 µM
[12] = second compound 0.316 µM, first compound 1 µM
[13] = second compound 1 µM, first compound 0.0316 µM
[14] = second compound 1 µM, first compound 0.1 µM
[15] = second compound 1 µM, first compound 0.316 µM
[16] = second compound 1 µM, first compound 1 µM
[17] = second compound 3.16 µM, first compound 0.0316 µM
[18] = second compound 3.16 µM, first compound 0.1 µM
[19] = second compound 3.16 µM, first compound 0.316 µM
[20] = second compound 3.16 µM, first compound 1 µM
[21] = second compound 10 µM, first compound 0.0316 µM
[22] = second compound 10 µM, first compound 0.1 µM
[23] = second compound 10 µM, first compound 0.316 µM
[24] = second compound 10 µM, first compound 1 µM
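Further: spheroids exposed to drugs for seven days before readout.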
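Wherever viability, T/C is given: percent viability relative to DMSO vehicle control taken as 100%.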

## COc1cccc(OCCCN)c1-c1cc(Nc2cnc(C#N)cn2)n[nH]1 + Nc1ccc(C#CCN(C(=O)Cc2ncc(C(F)(F)F)cc2C(F)(F)F)c2ccc(F)cc2)nn1
Second compound 0.0316 µM
  IC50: 6.21 nM
Second compound 0.1 µM
  IC50: 6.12 nM
Second compound 0.316 µM
  IC50: 6.36 nM
Second compound 1 µM
  IC50: 6.47 nM
Second compound 3.16 µM
  IC50: 6.4 nM
Second compound 10 µM
  IC50: 6.36 nM
Second compound 0.0316 µM, first compound 0.00316 µM
  viability, T/C: 86.5%
Second compound 0.0316 µM, first compound 0.01 µM
  viability, T/C: 24.3%
[1]
  viability, T/C: 3.65%
[2]
  viability, T/C: 2.95%
[3]
  viability, T/C: 2.97%
[4]
  viability, T/C: 1.66%
Second compound 0.1 µM, first compound 0.00316 µM
  viability, T/C: 80.2%
Second compound 0.1 µM, first compound 0.01 µM
  viability, T/C: 27.6%
[5]
  viability, T/C: 3.76%
[6]
  viability, T/C: 2.65%
[7]
  viability, T/C: 2.25%
[8]
  viability, T/C: 1.2%
Second compound 0.316 µM, first compound 0.00316 µM
  viability, T/C: 95.2%
Second compound 0.316 µM, first compound 0.01 µM
  viability, T/C: 20.7%
[9]
  viability, T/C: 3.16%
[10]
  viability, T/C: 2.72%
[11]
  viability, T/C: 3.55%
[12]
  viability, T/C: 1.23%
Second compound 1 µM, first compound 0.00316 µM
  viability, T/C: 98.5%
Second compound 1 µM, first compound 0.01 µM
  viability, T/C: 20.5%
[13]
  viability, T/C: 3.32%
[14]
  viability, T/C: 2.87%
[15]
  viability, T/C: 4.02%
[16]
  viability, T/C: 1.67%
Second compound 3.16 µM, first compound 0.00316 µM
  viability, T/C: 102%
Second compound 3.16 µM, first compound 0.01 µM
  viability, T/C: 16.9%
[17]
  viability, T/C: 3.53%
[18]
  viability, T/C: 1.93%
[19]
  viability, T/C: 2.04%
[20]
  viability, T/C: 1.29%
Second compound 10 µM, first compound 0.00316 µM
  viability, T/C: 93.2%
Second compound 10 µM, first compound 0.01 µM
  viability, T/C: 22%
[21]
  viability, T/C: 2.53%
[22]
  viability, T/C: 2.36%
[23]
  viability, T/C: 2.24%
[24]
  viability, T/C: 1.49%

## CCc1cc2c(N3CCc4c(cc(Cn5ccnc5)cc4-c4cn(C)nc4C(F)(F)F)C3=O)cc(C)nc2c(OC)n1 + Nc1ccc(C#CCN(C(=O)Cc2ncc(C(F)(F)F)cc2C(F)(F)F)c2ccc(F)cc2)nn1
Second compound 0.0316 µM
  IC50: > 10000 nM
Second compound 0.1 µM
  IC50: 6390 nM
Second compound 0.316 µM
  IC50: 4840 nM
Second compound 1 µM
  IC50: 9880 nM
Second compound 3.16 µM
  IC50: > 10000 nM
Second compound 10 µM
  IC50: > 10000 nM
[1]
  viability, T/C: 75.7%
[2]
  viability, T/C: 78.4%
[3]
  viability, T/C: 61.9%
[4]
  viability, T/C: 60.9%
Second compound 0.0316 µM, first compound 3.16 µM
  viability, T/C: 64.3%
Second compound 0.0316 µM, first compound 10 µM
  viability, T/C: 48.9%
[5]
  viability, T/C: 66.9%
[6]
  viability, T/C: 81.1%
[7]
  viability, T/C: 65.3%
[8]
  viability, T/C: 62.2%
Second compound 0.1 µM, first compound 3.16 µM
  viability, T/C: 55.7%
Second compound 0.1 µM, first compound 10 µM
  viability, T/C: 46.4%
[9]
  viability, T/C: 74.3%
[10]
  viability, T/C: 73%
[11]
  viability, T/C: 66.6%
[12]
  viability, T/C: 62.3%
Second compound 0.316 µM, first compound 3.16 µM
  viability, T/C: 52.1%
Second compound 0.316 µM, first compound 10 µM
  viability, T/C: 44.7%
[13]
  viability, T/C: 77.5%
[14]
  viability, T/C: 68.8%
[15]
  viability, T/C: 66.2%
[16]
  viability, T/C: 61.6%
Second compound 1 µM, first compound 3.16 µM
  viability, T/C: 52.4%
Second compound 1 µM, first compound 10 µM
  viability, T/C: 50.6%
[17]
  viability, T/C: 82.2%
[18]
  viability, T/C: 67.6%
[19]
  viability, T/C: 67.2%
[20]
  viability, T/C: 64.7%
Second compound 3.16 µM, first compound 3.16 µM
  viability, T/C: 57.9%
Second compound 3.16 µM, first compound 10 µM
  viability, T/C: 51.8%
[21]
  viability, T/C: 74.5%
[22]
  viability, T/C: 68.2%
[23]
  viability, T/C: 70.7%
[24]
  viability, T/C: 56%
Second compound 10 µM, first compound 3.16 µM
  viability, T/C: 56.4%
Second compound 10 µM, first compound 10 µM
  viability, T/C: 51.8%
